# Experiments:
# Experiment in all cases: relative viability (nuclei count vs DMSO), 5 days (fraction); higher = more cells survive
# Wnt-C59 + Trametinib = compound: CC1=NC=CC(=C1)C2=CC=C(C=C2)CC(=O)NC3=CC=C(C=C3)C4=CN=CC=C4 [Wnt-C59] + CC(=O)Nc1cccc(-n2c(=O)n(C3CC3)c(=O)c3c(Nc4ccc(I)cc4F)n(C)c(=O)c(C)c32)c1 [Trametinib] (partner 0.02 µM)
# In short: (§1)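 Lung cancer cell lines in 1536-well plates were dosed by pin tool the day after seeding, either with one drug alone or with a fixed anchor-drug dose plus five library-drug doses (not always all listed) in √10 steps. After 5 days, cells were fixed and their nuclei stained in one step (final 0.05% Triton X-100, 1% formaldehyde, 1 ug/ml Hoechst), then counted on 4× images. Relative viability is the nuclei count in treated wells divided by that in vehicle wells. Values are medians of duplicate plates.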
# Wnt-C59 + OSI-027 = compound: CC1=NC=CC(=C1)C2=CC=C(C=C2)CC(=O)NC3=CC=C(C=C3)C4=CN=CC=C4 [Wnt-C59] + COc1cccc2cc(-c3nc([C@H]4CC[C@H](C(=O)O)CC4)n4ncnc(N)c34)[nH]c12 [OSI-027] (partner 0.5 µM)
# In short: as §1
# Wnt-C59 + Olaparib = compound: CC1=NC=CC(=C1)C2=CC=C(C=C2)CC(=O)NC3=CC=C(C=C3)C4=CN=CC=C4 [Wnt-C59] + O=C(c1cc(Cc2n[nH]c(=O)c3ccccc23)ccc1F)N1CCN(C(=O)C2CC2)CC1 [Olaparib] (partner 8 µM)
# In short: as §1
# Lapatinib + Palbociclib = compound: CS(=O)(=O)CCNCc1ccc(-c2ccc3ncnc(Nc4ccc(OCc5cccc(F)c5)c(Cl)c4)c3c2)o1 [Lapatinib] + CC(=O)c1c(C)c2cnc(Nc3ccc(N4CCNCC4)cn3)nc2n(C2CCCC2)c1=O [Palbociclib] (partner 0.5 µM)
# In short: as §1
Cell Line,relative viability (Wnt-C59 + Trametinib; first compound 0.001 µM),relative viability (Wnt-C59 + Trametinib; first compound 0.01 µM),relative viability (Wnt-C59 + Trametinib; first compound 0.03162 µM),relative viability (Wnt-C59 + Trametinib; first compound 0.1 µM),relative viability (Wnt-C59 + OSI-027; first compound 0.001 µM),relative viability (Wnt-C59 + OSI-027; first compound 0.01 µM),relative viability (Wnt-C59 + OSI-027; first compound 0.03162 µM),relative viability (Wnt-C59 + OSI-027; first compound 0.1 µM),relative viability (Wnt-C59 + Olaparib; first compound 0.001 µM),relative viability (Wnt-C59 + Olaparib; first compound 0.01 µM),relative viability (Wnt-C59 + Olaparib; first compound 0.03162 µM),relative viability (Wnt-C59 + Olaparib; first compound 0.1 µM),relative viability (Lapatinib + Palbociclib; first compound 0.06325 µM),relative viability (Lapatinib + Palbociclib; first compound 0.2 µM),relative viability (Lapatinib + Palbociclib; first compound 0.6325 µM),relative viability (Lapatinib + Palbociclib; first compound 2 µM)
EPLC-272H,0.275,0.277,0.316,0.298,0.345,0.231,0.332,0.236,0.778,0.854,0.942,0.842,0.288,0.291,0.299,0.261
NCI-H1915,0.302,0.304,0.346,0.31,0.667,0.578,0.529,0.692,0.256,0.266,0.248,0.239,0.517,0.489,0.496,0.522
NCI-H1648,0.564,0.45,0.63,0.491,0.292,0.285,0.292,0.246,1.13,0.76,1.3,0.679,0.222,0.294,0.285,0.252
EMC-BAC-2,0.797,0.697,0.793,0.713,0.377,0.36,0.366,0.387,0.497,0.488,0.486,0.482,0.459,0.524,0.536,0.539

# Source: the supplement of paper PMC10307832
